The results in this text go back to ChEMBL document CHEMBL3991601, “The target landscape of clinical kinase drugs” (Science, 2017).

Assay [1] concerns the target Dual specificity protein kinase CLK2 (Homo sapiens, UniProt P49760).
For assay [2], the target named is Tyrosine-protein kinase Fyn (Homo sapiens, UniProt P06241).
The target of assay [3] is Interleukin-1 receptor-associated kinase 1 (Homo sapiens, UniProt P51617).
The target of assay [4] is T1, Serine/threonine-protein kinase LATS1 (Homo sapiens, UniProt O95835).
T1 sequence (O95835 whole entry): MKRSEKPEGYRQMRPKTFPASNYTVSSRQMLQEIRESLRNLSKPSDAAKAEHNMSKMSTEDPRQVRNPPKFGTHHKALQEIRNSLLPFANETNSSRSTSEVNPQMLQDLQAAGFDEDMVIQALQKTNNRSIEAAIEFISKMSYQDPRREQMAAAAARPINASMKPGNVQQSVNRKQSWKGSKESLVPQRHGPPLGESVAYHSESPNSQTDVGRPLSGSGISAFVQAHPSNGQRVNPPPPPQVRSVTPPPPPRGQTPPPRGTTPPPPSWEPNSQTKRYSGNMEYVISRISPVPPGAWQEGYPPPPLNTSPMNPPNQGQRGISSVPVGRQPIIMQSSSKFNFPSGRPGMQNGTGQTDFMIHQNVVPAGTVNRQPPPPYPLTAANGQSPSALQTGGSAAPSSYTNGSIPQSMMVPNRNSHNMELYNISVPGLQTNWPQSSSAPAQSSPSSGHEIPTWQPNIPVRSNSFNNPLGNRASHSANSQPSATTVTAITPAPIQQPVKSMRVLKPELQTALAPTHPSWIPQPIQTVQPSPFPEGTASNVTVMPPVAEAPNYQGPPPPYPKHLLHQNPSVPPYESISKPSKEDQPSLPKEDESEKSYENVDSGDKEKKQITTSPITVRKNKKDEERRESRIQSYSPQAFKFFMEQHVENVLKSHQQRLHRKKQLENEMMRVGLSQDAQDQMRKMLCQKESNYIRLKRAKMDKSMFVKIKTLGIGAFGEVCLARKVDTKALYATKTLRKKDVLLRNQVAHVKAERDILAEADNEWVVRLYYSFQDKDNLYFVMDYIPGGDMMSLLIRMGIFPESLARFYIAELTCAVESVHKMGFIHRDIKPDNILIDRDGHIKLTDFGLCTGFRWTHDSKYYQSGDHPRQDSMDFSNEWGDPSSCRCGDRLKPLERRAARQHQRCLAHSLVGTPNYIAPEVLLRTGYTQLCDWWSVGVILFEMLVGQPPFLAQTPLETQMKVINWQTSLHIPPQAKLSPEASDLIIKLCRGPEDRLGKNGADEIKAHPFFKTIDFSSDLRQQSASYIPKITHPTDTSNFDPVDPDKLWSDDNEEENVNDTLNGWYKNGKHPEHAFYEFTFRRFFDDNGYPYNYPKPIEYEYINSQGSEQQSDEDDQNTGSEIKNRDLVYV

The target of assay [5] is MAP kinase-activated protein kinase 2 (Homo sapiens, UniProt P49137).
The next assay has as its target Myosin-10 (Homo sapiens, UniProt P35580).
Assay [6] has as its target PAS domain-containing serine/threonine-protein kinase (Homo sapiens, UniProt Q96RG2).
For assay [7], the target named is T2, Membrane-associated tyrosine- and threonine-specific cdc2-inhibitory kinase (Homo sapiens, UniProt Q99640).
T2 sequence (Q99640 whole entry): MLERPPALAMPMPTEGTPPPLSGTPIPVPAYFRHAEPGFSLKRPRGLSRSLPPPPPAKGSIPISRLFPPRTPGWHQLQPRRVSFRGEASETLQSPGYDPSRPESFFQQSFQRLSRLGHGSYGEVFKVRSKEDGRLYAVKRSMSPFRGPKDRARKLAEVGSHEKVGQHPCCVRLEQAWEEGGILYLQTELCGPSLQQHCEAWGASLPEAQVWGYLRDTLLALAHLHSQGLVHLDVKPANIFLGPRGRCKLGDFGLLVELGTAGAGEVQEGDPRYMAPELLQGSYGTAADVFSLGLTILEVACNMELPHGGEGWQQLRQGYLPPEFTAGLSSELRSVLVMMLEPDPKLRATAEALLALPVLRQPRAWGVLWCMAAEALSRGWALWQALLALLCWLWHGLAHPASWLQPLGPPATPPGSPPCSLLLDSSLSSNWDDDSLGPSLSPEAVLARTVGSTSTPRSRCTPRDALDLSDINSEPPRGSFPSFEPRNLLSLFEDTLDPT

For assay [8], the target named is Serine/threonine-protein kinase SIK3 (Homo sapiens, UniProt Q9Y2K2).
For assay [9], the target named is Tyrosine-protein kinase Yes (Homo sapiens, UniProt P07947).
Chain of Tyrosine-protein kinase Yes (P07947 whole entry): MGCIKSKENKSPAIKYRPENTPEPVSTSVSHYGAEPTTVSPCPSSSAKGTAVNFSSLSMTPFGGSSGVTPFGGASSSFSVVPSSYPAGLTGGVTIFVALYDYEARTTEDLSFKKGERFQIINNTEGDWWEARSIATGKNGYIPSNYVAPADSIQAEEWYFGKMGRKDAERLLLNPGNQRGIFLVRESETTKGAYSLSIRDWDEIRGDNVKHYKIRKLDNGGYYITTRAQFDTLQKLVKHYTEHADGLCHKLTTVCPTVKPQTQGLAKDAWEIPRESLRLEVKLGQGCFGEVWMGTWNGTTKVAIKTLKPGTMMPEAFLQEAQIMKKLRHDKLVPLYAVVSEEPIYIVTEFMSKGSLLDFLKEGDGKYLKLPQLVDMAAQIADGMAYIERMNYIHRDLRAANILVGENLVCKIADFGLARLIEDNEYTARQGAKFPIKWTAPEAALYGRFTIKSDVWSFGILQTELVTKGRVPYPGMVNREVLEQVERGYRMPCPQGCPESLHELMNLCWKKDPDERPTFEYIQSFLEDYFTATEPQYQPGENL

The source made the active and inactive calls. Cut-off read from the data, not from the text of the source, for most assays here: actives have a measured Kd and inactives only a lower limit. Bounds are passed on as bounds.
Note: in the data inactive means no Kd found up to 30 µM.

Chain of Interleukin-1 receptor-associated kinase 1 (P51617 whole entry): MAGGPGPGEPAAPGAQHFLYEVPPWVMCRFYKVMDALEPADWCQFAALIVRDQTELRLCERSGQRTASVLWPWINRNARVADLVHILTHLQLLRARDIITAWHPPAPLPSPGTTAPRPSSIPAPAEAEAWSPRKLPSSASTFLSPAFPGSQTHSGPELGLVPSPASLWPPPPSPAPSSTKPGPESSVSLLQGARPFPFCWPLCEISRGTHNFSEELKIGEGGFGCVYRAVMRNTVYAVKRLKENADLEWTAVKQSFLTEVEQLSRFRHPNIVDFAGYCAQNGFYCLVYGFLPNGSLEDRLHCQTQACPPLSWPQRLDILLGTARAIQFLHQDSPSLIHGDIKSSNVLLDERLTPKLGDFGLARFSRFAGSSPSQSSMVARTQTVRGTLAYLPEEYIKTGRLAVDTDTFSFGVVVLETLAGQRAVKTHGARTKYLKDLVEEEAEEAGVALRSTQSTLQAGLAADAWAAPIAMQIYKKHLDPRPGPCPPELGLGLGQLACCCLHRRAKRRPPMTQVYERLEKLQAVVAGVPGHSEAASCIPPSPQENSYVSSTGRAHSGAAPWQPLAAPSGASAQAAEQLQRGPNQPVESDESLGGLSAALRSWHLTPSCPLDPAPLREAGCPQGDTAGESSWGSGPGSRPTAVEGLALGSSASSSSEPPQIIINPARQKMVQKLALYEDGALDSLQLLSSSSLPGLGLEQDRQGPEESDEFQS
Chain of Myosin-10 (P35580 whole entry, the tested form may be a part): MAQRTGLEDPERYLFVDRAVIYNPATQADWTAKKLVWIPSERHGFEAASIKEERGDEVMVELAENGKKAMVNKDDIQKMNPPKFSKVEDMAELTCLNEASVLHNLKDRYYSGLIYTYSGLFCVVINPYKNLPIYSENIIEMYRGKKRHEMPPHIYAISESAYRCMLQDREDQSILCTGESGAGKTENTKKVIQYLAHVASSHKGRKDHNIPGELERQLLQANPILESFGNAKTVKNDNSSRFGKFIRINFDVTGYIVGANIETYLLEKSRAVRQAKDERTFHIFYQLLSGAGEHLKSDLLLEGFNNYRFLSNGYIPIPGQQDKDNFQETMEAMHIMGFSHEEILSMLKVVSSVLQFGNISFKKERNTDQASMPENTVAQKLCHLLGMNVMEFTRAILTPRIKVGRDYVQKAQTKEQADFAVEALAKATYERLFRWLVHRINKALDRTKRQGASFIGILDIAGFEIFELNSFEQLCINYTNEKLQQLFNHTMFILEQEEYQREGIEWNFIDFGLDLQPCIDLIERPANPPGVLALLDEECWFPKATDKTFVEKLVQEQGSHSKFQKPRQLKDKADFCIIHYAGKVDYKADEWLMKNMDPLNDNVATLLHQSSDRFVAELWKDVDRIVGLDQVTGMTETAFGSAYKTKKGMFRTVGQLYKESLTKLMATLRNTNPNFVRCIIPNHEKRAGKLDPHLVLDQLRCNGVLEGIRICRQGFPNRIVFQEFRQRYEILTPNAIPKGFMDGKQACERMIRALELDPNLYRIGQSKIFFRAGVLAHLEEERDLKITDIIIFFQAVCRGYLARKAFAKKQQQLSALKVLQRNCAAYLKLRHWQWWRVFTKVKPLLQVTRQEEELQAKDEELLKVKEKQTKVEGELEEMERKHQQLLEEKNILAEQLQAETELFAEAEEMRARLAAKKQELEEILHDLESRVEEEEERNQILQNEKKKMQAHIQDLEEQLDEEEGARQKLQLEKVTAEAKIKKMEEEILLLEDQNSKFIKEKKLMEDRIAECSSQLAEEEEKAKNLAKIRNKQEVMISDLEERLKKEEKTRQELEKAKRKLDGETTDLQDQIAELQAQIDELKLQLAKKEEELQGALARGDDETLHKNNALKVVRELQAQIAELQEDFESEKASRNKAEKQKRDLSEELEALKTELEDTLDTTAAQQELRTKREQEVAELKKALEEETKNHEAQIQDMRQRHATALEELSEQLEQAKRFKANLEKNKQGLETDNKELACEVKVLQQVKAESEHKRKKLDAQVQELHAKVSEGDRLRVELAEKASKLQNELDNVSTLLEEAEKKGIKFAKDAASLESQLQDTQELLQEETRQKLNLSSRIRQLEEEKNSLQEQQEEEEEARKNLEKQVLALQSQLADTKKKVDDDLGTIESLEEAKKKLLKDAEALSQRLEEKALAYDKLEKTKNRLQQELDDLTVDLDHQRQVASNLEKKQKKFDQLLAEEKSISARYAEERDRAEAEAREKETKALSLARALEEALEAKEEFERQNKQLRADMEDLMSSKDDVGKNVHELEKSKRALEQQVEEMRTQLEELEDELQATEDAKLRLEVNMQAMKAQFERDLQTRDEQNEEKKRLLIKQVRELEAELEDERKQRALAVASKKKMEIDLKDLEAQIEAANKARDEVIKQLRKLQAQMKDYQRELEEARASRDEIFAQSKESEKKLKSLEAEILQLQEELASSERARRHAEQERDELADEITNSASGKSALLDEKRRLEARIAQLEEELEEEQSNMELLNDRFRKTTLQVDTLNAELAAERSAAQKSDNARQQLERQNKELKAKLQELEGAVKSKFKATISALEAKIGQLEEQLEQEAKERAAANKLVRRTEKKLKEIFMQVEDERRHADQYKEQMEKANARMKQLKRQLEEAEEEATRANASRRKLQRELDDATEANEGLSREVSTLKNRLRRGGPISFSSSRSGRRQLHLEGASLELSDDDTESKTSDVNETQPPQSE
Chain of Tyrosine-protein kinase Fyn (P06241 whole entry): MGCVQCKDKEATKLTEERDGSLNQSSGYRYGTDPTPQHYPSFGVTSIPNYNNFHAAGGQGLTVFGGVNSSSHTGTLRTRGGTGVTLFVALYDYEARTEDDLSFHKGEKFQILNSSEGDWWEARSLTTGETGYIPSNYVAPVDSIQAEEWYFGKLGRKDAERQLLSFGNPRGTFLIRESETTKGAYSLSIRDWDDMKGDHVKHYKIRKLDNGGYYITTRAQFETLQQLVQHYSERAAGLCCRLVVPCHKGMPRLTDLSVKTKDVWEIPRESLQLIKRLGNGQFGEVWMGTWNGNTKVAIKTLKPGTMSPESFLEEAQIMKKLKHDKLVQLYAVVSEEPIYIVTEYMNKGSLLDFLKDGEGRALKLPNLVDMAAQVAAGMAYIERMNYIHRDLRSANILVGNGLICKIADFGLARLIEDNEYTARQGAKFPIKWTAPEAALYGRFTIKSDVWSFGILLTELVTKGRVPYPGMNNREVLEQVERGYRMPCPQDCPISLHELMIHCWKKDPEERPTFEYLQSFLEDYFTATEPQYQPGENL
Chain of PAS domain-containing serine/threonine-protein kinase (Q96RG2 whole entry, the tested form may be a part): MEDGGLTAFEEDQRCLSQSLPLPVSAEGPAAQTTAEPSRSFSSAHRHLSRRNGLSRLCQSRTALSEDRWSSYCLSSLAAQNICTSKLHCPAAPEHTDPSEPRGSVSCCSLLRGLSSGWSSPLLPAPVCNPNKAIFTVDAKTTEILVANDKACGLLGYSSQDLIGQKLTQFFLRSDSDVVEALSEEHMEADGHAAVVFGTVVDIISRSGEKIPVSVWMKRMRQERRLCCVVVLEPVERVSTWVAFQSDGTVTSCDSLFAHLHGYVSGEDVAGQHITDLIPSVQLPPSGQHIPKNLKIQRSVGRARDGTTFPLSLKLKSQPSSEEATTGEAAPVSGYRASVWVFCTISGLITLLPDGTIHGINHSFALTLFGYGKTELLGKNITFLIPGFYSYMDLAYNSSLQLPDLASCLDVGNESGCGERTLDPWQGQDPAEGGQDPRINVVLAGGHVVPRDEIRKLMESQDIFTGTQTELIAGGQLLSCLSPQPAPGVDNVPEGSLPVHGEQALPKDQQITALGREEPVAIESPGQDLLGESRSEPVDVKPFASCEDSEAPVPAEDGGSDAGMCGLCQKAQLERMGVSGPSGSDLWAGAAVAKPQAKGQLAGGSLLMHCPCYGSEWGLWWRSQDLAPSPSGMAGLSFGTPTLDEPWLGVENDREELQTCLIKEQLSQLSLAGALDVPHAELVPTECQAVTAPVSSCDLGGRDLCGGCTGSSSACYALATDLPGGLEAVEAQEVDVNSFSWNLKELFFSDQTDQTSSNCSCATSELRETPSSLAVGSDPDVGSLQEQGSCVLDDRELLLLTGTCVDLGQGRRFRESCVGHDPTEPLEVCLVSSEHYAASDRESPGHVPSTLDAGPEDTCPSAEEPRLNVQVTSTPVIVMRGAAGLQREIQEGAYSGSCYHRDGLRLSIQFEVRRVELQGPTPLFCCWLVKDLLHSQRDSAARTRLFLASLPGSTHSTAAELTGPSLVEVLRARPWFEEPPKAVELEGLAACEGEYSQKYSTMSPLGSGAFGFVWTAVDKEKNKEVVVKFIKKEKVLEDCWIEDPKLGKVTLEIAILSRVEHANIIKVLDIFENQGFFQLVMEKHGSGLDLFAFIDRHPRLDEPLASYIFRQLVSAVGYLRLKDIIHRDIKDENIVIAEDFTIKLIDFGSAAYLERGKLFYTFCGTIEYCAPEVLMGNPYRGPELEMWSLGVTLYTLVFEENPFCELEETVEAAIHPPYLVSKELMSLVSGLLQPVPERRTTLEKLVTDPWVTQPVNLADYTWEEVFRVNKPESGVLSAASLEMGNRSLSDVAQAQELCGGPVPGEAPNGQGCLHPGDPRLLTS

One may read the Kd as the concentration at which binding is half-saturated. Regarding `N#CC1(c2ccc(NC(=O)c3cccnc3NCc3ccncc3)cc2)CCCC1` [RIVOCERANIB], the Kd (in [1]; in assay [2]; in [3]; in assay [4]; in assay [5]; on Myosin-10) was > 30 µM (inactive) each time. Also, the Kd in assay [6], in assay [7], in assay [8] and in assay [9] was > 30 µM (inactive) each time.

As for `Cn1cc(-c2cnn3c(N)c(Br)c([C@@H]4CCCNC4)nc23)cn1` [SCH-900776], the Kd in assay [1] is > 30 µM (inactive); in [2] it was > 30 µM (inactive); in assay [3], > 30 µM (inactive); in assay [4], 4.62 µM (active); in [5], > 30 µM (inactive); on Myosin-10 it was > 30 µM (inactive). Further, the Kd in assay [6], in [7], in [8] and in [9] was > 30 µM (inactive) each time.

With `CO[C@H]1C[C@@H]2CC[C@@H](C)[C@@](O)(O2)C(=O)C(=O)N2CCCC[C@H]2C(=O)O[C@H]([C@H](C)C[C@@H]2CC[C@@H](O)[C@H](OC)C2)CC(=O)[C@H](C)/C=C(\C)[C@@H](O)[C@@H](OC)C(=O)[C@H](C)C[C@H](C)/C=C/C=C/C=C/1C` [SIROLIMUS], the Kd (in assay [1]; in assay [2]; in [3]; in assay [4]; in assay [5]; at Myosin-10) was > 30 µM (inactive) throughout. Moreover, the Kd in [6], in assay [7], in assay [8] and in assay [9] was > 30 µM (inactive) each time.

Turning to `CO[C@H]1C[C@@H]2CC[C@@H](C)[C@@](O)(O2)C(=O)C(=O)N2CCCC[C@H]2C(=O)O[C@H]([C@H](C)C[C@@H]2CC[C@@H](OC(=O)C(C)(CO)CO)[C@H](OC)C2)CC(=O)[C@H](C)/C=C(\C)[C@@H](O)[C@@H](OC)C(=O)[C@H](C)C[C@H](C)/C=C/C=C/C=C/1C` [TEMSIROLIMUS], the Kd (in assay [1]; in assay [2]; in [3]; in assay [4]; in [5]; at Myosin-10) was > 30 µM (inactive) each time. The Kd in [6], in [7], in assay [8] and in [9] was > 30 µM (inactive) in each case.

In the case of `O=C(Cc1ccc(-c2ccc(OCCN3CCOCC3)cc2)cn1)NCc1ccccc1` [TIRBANIBULIN], the Kd (in assay [1]; in assay [2]; in [3]; in assay [4]; in assay [5]; at Myosin-10) was > 30 µM (inactive) each time. The Kd in assay [6], in [7], in [8] and in assay [9] was > 30 µM (inactive) in each case.

Regarding `C[C@@H](NC(=O)c1ncnc(N)c1Cl)c1ncc(C(=O)Nc2cc(C(F)(F)F)c(Cl)cn2)s1` [TOVORAFENIB], the Kd (in assay [1]; in [2]; in [3]; in assay [4]; in [5]; at Myosin-10) was > 30 µM (inactive) in each case. Besides, the Kd in assay [6], in [7], in assay [8] and in [9] was > 30 µM (inactive) in each case.
